From patent US11001578B2, “N-((HET)arylmethyl)-heteroaryl-carboxamides compounds as plasma kallikrein inhibitors” (KALVISTA PHARMACEUTICALS LIMITED, priority 2014, dated 2021)

Key:
Human KLK1 = Human KLK1 (Homo sapiens (Human), UniProt P06870); assay: Determination of the IC50 for KLK1 (fluorogenic substrate H-DVal-Leu-Arg-AFC); format: biochemical; details: 25° C.
Experimental: Determination of the IC50 for KLK1
Human KLK1 (Callbiochem) was incubated at 25° C. with the fluorogenic substrate H-DVal-Leu-Arg-AFC and various concentrations of the test compound. Residual enzyme activity (initial rate of reaction) was determined by measuring the change in […] at 410 nm and the IC50 value for the test compound was determined.

Human FXIa = Human FXIa (Homo sapiens (Human), UniProt P03951); assay: Determination of the % inhibition for FXIa (fluorogenic substrate Z-Gly-Pro-Arg-AFC); format: biochemical; details: 40 μM of the test compound, 25° C.
Chain of Human FXIa (P03951 388-625 limits assumed): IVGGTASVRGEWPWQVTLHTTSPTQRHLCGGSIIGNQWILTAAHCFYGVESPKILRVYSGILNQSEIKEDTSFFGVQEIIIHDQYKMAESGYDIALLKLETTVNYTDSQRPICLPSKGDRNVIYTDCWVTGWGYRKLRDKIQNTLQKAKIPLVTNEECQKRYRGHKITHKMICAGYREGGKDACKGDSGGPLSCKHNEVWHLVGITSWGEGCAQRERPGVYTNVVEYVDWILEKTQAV
Chain of Human FXIa (P03951 19-387 partner limits assumed): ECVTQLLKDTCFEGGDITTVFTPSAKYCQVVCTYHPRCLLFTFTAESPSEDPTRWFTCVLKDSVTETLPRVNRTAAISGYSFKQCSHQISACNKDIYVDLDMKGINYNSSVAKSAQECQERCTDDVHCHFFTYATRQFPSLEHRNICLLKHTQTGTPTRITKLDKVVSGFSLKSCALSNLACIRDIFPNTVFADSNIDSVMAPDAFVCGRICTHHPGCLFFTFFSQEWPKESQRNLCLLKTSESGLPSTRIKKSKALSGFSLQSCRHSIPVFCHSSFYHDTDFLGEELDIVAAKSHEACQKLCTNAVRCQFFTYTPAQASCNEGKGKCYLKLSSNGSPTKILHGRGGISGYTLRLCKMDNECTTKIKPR
Experimental: Determination of the % Inhibition for FXIa
Human FXIa (Enzyme Research Laboratories) was incubated at 25° C. with the fluorogenic substrate Z-Gly-Pro-Arg-AFC and 40 μM of the test compound. Residual enzyme activity (initial rate of reaction) was determined by measuring the change in […].

Chain of Human KLK1 (P06870 25-262): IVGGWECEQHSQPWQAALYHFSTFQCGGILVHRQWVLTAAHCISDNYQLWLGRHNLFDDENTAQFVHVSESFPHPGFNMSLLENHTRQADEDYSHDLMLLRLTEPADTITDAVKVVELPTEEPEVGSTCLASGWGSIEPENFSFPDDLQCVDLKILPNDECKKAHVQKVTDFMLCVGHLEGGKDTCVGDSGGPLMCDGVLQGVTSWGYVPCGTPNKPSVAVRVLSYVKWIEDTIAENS

IC50 (Human KLK1) | % Inhibition @ 40 μM (human FXIa) (Human FXIa) | Structure (SMILES)
> 10 µM |  | COc1cc(F)c(CNC(=O)c2cn(Cc3ccc(Cn4cc(C)cn4)cc3)nc2C(F)(F)F)c(F)c1 [Example 11, N-[(2,6-difluoro-4-methoxyphenyl)methyl]-1-({4-[(4-methylpyrazol-1-yl)methyl]phenyl}methyl)-3-(trifluoromethyl)pyrazole-4-carboxamide]
 | 0% | NC(=O)c1cccc(CNC(=O)c2cn(Cc3ccc(Cn4ccccc4=O)cc3)nc2C2CC2)c1 [Example 49, N-[(3-carbamoylphenyl)methyl]-3-cyclopropyl-1-({4-[(2-oxopyridin-1-yl)methyl]phenyl}methyl)pyrazole-4-carboxamide]
 | 0% | Nc1nn(Cc2ccc(Cn3ccccc3=O)cc2)cc1C(=O)NCc1ccc(OC(F)(F)F)cc1 [Example 58, 3-amino-1-({4-[(2-oxopyridin-1-yl)methyl]phenyl}methyl)-N-{[4-(trifluoromethoxy)phenyl]methyl}pyrazole-4-carboxamide]

Structure (SMILES) | IC50 (Human KLK1) | % Inhibition @ 40 μM (human FXIa) (Human FXIa)
COc1cccc(CNC(=O)c2cn(Cc3ccc(Cn4ccccc4=O)cc3)nc2C2CC2)c1F [Example 52, 3-cyclopropyl-N-[(2-fluoro-3-methoxyphenyl)methyl]-1-({4-[(2-oxopyridin-1-yl)methyl]phenyl}methyl)pyrazole-4-carboxamide] |  | 1%
